This is an account of results in PMC9329436, “Optimization of the 4-anilinoquin(az)oline scaffold as epidermal growth factor receptor (EGFR) inhibitors for chordoma utilizing a toxicology profiling assay platform” (Scientific Reports, 2022).

Like-named read-outs stand apart in the source and are kept apart here.

Common to all, as to format: biochemical
In assay [1] the target is T1, 320 wild-type protein kinases (Homo sapiens, UniProt O00444).
T1 sequence (O00444 1-970): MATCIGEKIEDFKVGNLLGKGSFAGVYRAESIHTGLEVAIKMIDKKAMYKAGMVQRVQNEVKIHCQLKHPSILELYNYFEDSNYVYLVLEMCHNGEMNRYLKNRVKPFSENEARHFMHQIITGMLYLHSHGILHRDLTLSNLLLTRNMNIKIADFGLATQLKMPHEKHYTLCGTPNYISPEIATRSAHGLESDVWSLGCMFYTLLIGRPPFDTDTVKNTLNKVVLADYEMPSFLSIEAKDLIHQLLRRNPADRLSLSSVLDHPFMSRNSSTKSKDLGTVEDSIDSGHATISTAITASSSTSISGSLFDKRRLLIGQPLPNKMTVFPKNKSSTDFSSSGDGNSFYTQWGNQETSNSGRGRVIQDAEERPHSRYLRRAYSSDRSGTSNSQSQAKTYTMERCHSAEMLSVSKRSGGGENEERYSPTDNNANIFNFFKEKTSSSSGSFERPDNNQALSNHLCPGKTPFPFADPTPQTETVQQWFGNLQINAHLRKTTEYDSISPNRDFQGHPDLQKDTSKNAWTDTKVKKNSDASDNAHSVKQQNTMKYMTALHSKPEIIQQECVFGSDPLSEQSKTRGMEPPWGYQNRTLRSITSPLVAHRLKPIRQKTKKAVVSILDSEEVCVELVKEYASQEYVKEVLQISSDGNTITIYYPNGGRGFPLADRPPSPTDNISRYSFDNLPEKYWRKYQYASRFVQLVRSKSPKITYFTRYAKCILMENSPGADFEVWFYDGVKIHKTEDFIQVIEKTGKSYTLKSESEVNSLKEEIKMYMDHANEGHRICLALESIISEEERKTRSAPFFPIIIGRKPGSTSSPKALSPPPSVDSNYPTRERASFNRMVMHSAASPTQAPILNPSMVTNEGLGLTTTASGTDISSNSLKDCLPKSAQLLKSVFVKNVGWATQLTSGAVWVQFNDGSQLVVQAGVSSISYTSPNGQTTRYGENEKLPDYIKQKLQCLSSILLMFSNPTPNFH
The settings on record: kinase SAK, singlicate. The text has this: (§1) Table S4. Profiling of two compounds at two concentrations against 320 wild-type protein kinases; singlicate measurement; Residual activities (% of control).

The target of assay [2] is 320 wild-type protein kinases (Homo sapiens, UniProt P06241). Conditions: FYN, singlicate.
Chain of 320 wild-type protein kinases (Homo sapiens, UniProt P06241) (P06241 whole entry): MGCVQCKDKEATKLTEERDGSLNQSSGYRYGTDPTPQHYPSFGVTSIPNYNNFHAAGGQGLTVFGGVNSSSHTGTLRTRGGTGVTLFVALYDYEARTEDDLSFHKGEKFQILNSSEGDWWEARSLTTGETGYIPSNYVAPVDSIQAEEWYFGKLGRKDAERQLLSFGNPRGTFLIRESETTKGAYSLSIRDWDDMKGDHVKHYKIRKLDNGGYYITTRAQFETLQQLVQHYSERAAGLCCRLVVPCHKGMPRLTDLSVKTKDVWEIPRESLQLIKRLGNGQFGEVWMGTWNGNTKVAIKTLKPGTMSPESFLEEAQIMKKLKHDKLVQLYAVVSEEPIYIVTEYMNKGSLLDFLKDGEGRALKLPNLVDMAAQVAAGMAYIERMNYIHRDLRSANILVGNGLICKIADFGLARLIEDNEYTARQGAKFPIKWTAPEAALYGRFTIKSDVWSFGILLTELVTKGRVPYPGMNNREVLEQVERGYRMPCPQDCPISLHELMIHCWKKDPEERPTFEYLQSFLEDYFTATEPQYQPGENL
Description: as §1

Assay [3] addresses 320 wild-type protein kinases (Homo sapiens, UniProt P53779). The settings on record: singlicate.
Description: as §1

The target of assay [4] is 320 wild-type protein kinases (Homo sapiens, UniProt P68400). The settings on record: singlicate.
Chain of 320 wild-type protein kinases (Homo sapiens, UniProt P68400) (P68400 whole entry): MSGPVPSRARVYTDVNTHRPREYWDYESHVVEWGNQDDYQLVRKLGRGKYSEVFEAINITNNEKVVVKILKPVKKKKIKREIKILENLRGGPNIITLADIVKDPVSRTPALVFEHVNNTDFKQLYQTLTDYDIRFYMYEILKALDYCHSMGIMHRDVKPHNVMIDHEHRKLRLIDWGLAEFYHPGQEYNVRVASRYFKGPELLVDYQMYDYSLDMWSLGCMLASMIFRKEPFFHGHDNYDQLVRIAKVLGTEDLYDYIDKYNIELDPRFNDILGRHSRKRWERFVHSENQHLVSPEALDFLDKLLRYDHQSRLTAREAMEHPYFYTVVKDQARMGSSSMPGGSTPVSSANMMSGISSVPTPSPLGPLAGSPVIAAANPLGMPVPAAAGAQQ
Description: as §1

The target of assay [5] is T2, 320 wild-type protein kinases (Homo sapiens, UniProt Q05513).
T2 sequence (Q05513 1-592): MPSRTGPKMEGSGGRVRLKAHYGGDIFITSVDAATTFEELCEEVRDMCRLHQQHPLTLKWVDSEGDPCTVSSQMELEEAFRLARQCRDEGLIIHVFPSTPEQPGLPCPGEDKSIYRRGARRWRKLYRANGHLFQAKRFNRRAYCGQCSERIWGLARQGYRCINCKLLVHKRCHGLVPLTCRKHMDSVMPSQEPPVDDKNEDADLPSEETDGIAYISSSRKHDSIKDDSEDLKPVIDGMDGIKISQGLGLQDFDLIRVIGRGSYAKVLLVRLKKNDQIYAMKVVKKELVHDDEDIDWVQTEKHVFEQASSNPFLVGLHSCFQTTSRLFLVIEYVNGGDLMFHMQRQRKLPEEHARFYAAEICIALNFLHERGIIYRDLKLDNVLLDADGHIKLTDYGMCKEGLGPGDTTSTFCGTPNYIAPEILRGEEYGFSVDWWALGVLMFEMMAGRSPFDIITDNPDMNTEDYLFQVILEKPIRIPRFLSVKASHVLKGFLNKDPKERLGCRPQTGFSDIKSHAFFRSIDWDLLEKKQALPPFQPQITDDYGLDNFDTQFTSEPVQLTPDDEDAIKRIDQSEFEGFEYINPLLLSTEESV
The settings on record: PKC-zeta, singlicate.
Description: as §1

The target of assay [6] is 320 wild-type protein kinases (Homo sapiens, UniProt Q8TDX7). The settings on record: singlicate.
Chain of 320 wild-type protein kinases (Homo sapiens, UniProt Q8TDX7) (Q8TDX7 whole entry): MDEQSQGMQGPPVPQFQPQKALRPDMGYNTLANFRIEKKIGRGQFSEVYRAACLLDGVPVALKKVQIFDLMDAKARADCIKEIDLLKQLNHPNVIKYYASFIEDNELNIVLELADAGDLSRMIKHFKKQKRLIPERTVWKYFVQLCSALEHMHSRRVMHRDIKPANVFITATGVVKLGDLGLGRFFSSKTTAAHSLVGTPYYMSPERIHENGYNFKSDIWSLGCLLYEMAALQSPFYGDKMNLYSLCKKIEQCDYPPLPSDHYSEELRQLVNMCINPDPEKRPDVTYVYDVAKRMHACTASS
Description: as §1

Assay [7] concerns the target T3, 320 wild-type protein kinases (Homo sapiens, UniProt Q9BZL6).
T3 sequence (Q9BZL6 1-878): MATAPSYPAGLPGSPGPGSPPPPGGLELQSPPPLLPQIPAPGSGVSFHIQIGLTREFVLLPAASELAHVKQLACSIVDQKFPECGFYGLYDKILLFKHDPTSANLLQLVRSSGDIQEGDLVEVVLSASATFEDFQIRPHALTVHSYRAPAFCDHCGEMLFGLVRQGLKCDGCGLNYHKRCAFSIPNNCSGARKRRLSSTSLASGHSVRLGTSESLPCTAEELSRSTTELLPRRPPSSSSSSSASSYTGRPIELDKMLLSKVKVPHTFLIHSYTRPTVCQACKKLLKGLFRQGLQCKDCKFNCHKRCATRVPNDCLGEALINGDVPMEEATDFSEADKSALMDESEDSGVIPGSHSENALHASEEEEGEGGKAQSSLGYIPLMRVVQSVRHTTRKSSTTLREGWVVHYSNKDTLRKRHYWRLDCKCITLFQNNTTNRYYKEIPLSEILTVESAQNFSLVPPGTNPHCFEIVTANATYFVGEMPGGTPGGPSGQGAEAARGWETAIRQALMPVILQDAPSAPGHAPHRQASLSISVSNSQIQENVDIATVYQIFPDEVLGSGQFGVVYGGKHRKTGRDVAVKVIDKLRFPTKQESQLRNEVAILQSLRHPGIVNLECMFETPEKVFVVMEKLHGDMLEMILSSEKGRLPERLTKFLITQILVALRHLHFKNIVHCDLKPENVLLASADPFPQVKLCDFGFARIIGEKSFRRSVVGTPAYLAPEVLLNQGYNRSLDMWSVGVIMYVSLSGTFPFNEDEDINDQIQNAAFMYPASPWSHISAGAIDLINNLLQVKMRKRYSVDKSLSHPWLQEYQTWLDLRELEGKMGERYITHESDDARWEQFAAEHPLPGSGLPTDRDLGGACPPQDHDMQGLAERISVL
Conditions: singlicate.
Description: as §1

Chain of 320 wild-type protein kinases (Homo sapiens, UniProt P53779) (P53779 whole entry): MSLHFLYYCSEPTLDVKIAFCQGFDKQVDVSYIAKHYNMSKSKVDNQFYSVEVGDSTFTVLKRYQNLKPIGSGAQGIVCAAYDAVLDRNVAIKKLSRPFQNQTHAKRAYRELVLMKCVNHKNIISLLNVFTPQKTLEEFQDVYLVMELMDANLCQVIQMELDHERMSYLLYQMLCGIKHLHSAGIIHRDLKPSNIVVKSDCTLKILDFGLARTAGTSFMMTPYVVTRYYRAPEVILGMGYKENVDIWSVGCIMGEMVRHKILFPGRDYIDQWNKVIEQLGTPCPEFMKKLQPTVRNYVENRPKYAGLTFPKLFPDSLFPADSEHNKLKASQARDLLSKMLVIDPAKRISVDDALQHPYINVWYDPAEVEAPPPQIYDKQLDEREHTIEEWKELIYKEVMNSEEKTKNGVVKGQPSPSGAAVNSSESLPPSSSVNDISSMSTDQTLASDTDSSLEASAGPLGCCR

As for `C#Cc1cc(Nc2ncnc3cc(I)ccc23)ccc1Cl` [Compound 41], the “Residual activity, SAK” value in assay [1] (assay conc. 1.0E-06 M) is on record as 77 % of control; in assay [1] (assay conc. 1.0E-07 M), 95 % of control. Also, the Residual activity is listed as 101 % of control in assay [2] (1.0E-06 M); 107 % of control in assay [2] (1.0E-07 M); 99 % of control in assay [3] (JNK3, 1.0E-06 M); 90 % of control in assay [3] (JNK3, 1.0E-07 M); 99 % of control in assay [4] (CK2-alpha1, 1.0E-06 M); 104 % of control in assay [4] (CK2-alpha1, 1.0E-07 M). The Residual activity is 76 % of control in assay [5] (1.0E-06 M); 87 % of control in assay [5] (1.0E-07 M); 101 % of control in assay [6] (NEK7, 1.0E-06 M); 129 % of control in assay [6] (NEK7, 1.0E-07 M); 84 % of control in assay [7] (PRKD2, 1.0E-06 M); 97 % of control in assay [7] (PRKD2, 1.0E-07 M).
In the case of `C#Cc1cc(Nc2ncnc3cc(OC)c(OC)cc23)ccc1Cl` [Compound 45], the “Residual activity, SAK” value is listed as 82 % of control in assay [1] (assay conc. 1.0E-06 M) and 99 % of control in assay [1] (assay conc. 1.0E-07 M). Besides, the Residual activity in assay [2] (1.0E-06 M) is on record as 76 % of control; in assay [2] (1.0E-07 M), 110 % of control; in assay [3] (JNK3, 1.0E-06 M), 89 % of control; in assay [3] (JNK3, 1.0E-07 M) it was 92 % of control; in assay [4] (CK2-alpha1, 1.0E-06 M), 101 % of control; in assay [4] (CK2-alpha1, 1.0E-07 M) it was 109 % of control. Besides, the Residual activity in assay [5] (1.0E-06 M) is given as 85 % of control; in assay [5] (1.0E-07 M) it was 73 % of control; in assay [6] (NEK7, 1.0E-06 M), 107 % of control; in assay [6] (NEK7, 1.0E-07 M), 117 % of control; in assay [7] (PRKD2, 1.0E-06 M), 73 % of control; in assay [7] (PRKD2, 1.0E-07 M), 80 % of control.
